The molecules below were run against T1, PI3Kα (Homo sapiens, UniProt P42336) (assay: PI3K Alpha Leadseeker SPA Assay). Settings: in at least one experimental run; read-out: IC50 value against PI3Kα.
T1 construct: His
T1 sequence (P42336 whole entry, species assumed): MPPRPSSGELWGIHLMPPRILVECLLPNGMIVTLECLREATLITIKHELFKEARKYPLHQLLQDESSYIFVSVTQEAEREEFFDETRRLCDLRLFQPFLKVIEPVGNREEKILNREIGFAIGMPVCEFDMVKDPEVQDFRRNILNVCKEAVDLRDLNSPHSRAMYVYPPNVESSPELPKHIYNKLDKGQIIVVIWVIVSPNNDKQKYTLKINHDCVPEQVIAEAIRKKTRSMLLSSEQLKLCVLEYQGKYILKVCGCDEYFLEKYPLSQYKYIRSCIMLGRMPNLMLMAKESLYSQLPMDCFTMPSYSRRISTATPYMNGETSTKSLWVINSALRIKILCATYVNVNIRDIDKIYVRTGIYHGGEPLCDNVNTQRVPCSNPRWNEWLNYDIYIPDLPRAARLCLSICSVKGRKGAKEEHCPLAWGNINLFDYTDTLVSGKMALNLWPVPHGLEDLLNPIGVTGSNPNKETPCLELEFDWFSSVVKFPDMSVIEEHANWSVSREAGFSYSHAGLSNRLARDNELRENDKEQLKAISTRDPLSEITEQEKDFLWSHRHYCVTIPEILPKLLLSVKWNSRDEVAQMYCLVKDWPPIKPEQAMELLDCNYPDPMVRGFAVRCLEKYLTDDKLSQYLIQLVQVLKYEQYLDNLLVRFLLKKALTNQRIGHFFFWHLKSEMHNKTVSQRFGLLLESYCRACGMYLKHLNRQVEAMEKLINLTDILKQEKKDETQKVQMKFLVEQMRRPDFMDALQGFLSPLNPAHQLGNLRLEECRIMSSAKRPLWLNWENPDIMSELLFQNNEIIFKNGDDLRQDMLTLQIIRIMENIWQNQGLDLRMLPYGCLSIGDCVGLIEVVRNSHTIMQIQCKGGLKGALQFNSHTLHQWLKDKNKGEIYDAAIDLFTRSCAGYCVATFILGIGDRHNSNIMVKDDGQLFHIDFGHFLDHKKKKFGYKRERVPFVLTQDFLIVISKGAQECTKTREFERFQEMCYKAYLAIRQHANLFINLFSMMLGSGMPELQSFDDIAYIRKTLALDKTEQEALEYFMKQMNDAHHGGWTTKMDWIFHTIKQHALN
T1 sequence (P27986 whole entry partner, species assumed): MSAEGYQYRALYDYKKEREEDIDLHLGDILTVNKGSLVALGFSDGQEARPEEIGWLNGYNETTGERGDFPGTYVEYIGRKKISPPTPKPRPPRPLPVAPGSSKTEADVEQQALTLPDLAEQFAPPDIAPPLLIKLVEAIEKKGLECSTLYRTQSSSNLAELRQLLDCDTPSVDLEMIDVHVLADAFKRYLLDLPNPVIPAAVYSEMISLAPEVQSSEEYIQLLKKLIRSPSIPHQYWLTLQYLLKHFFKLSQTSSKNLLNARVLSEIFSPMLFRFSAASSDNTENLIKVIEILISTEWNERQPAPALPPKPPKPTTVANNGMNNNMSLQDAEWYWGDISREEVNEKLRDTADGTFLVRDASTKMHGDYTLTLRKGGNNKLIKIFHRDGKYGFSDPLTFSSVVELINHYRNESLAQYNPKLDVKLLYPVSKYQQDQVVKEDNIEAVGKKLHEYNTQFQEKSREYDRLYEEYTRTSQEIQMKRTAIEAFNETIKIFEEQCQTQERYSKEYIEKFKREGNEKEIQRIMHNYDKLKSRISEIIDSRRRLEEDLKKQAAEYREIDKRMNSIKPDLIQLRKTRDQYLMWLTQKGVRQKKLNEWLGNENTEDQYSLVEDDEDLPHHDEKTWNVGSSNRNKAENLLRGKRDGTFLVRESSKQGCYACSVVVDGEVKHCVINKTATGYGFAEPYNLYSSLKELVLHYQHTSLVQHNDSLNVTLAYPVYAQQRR
Type: biochemical
Procedure: Compounds of the present invention were tested according to the following assays and found as inhibitors of PI3 kinases, particularly PI3Kα. The exemplified compounds were tested and found active against PI3Kα. The IC50's ranged from about 1 nM to 10 μM.
SPA imaging beads are microspheres containing scintillant which emit light in the red region of the visible spectrum. As a result, these beads are ideally suited to use with a CCD imager such as the Viewlux. The Leadseeker beads used in this system are polystyrene beads that have been coupled with polyethyleneimine. When added to the assay mixture, the beads absorb both the substrate (PIP2) and product (PIP3). Adsorbed P^33—PIP3 will cause an increase in signal, measured as ADUs (analog to digital units). This protocol details the use of the PEI-PS Leadseeker beads for assays using His-p110/p85 PI3K alpha.
Solid compounds are typically plated with 0.1 μl of 100% DMSO in all wells (except column 6 and 18) of a 384-well, flat bottom, low volume plate (Greiner 784075). The compounds are serially diluted (3-fold in 100% DMSO) across the plate from column 1 to column 12 and column 13 to column 24 and leave column 6 and 18 containing only DMSO to yield 11 concentrations for each test compound.
The assay buffer contains MOPS (pH 6.5), CHAPS, and DTT. PI3K alpha and PIP2 (L-alpha-D-myo-Phosphatidylinositol 4,5-bisphosphate [PI(4,5)P2]3-O-phospho linked, D(+)-sn-1,2-di-O-octanoylglyceryl, CellSignals # 901) are mixed and incubated in the plate with compound for 30 min prior to starting the reaction with the addition of P^33-ATP and MgCl2 (reagents added using Zoom). Enzyme-free wells (column 18) are typically done to determine the low control. PEI-PS Leadseeker beads in PBS/EDTA/CHAPS are added (by Multidrop) to quench the reaction, and the plates are allowed to incubate for at least one hour (typically overnight) before centrifugation. The signal is determined using a Viewlux detector and is then imported into curve fitting software (Activity Base) for construction of concentration response curves. The percent inhibition of activity was calculated relative to high controls (C1, 0.1 μl DMSO in column 6, rows A-P)) and low controls (C2, 5 μl of 40 uM PIP2 in buffer in column 18, rows A-P) using, 100*(1-(U1-C2)/(C1-C2)). The concentration of test compound yielding 50% inhibition was determined using the equation, y=((Vmax*x)/(K+x))+Y2, where “K” was equal to the IC50. The IC50 values were converted to pIC50 values, i.e., −log IC50 in Molar concentration.
An IC50 of 50 nM was found for c1nc(N2CCOCC2)c2cc(-c3cnc4[nH]ccc4c3)ccc2n1 [Example 15, 4-(4-morpholinyl)-6-(1H-pyrrolo[2,3-b]pyridin-5-yl)quinazoline] in this work.
An IC50 of 2.5 nM was found for COc1ccc(Nc2ncnc3ccc(-c4cncc(NS(=O)(=O)c5ccc(F)cc5F)c4)cc23)cc1Cl [Example 73, N-[5-(4-{[3-chloro-4-(methyloxy)phenyl]amino}-6-quinazolinyl)-3-pyridinyl]-2,4-difluorobenzenesulfonamide] in this work.
An IC50 of 7.9 nM was found for CN(C)S(=O)(=O)c1cc(-c2ccc3nc(NCCO)nc(-c4ccncc4)c3c2)cnc1N [Example 1, 2-amino-5-[2-[(2-hydroxyethyl)amino]-4-(4-pyridinyl)-6-quinazolinyl]-N,N-dimethyl-3-pyridinesulfonamide] in this work.
An IC50 of 40 nM was found for NS(=O)(=O)c1cncc(-c2ccc3ncnc(N4CCCCC4)c3c2)c1 [Example 16, 5-[4-(1-piperidinyl)-6-quinazolinyl]-3-pyridinesulfonamide] in this work.
An IC50 of 1.4 nM was found for CC(=O)Nc1nc(-c2ccncc2)c2cc(-c3cnc(Cl)c(NS(=O)(=O)c4ccccc4)c3)ccc2n1 [Example 6, N-[6-{6-chloro-5-[(phenylsulfonyl)amino]-3-pyridinyl}-4-(4-pyridinyl)-2-quinazolinyl]acetamide] in this work.
An IC50 of 1 nM was found for CCN1CCN(c2ncnc3ccc(-c4cncc(NS(=O)(=O)c5ccc(F)cc5F)c4)cc23)CC1=O [Example 61, N-{5-[4-(4-ethyl-3-oxo-1-piperazinyl)-6-quinazolinyl]-3-pyridinyl}-2,4-difluorobenzenesulfonamide] in this work.
An IC50 of 100 nM was found for OCc1cccc(Nc2nc(-c3ccncc3)c3cc(-c4cnc5[nH]ccc5c4)ccc3n2)c1 [Example 2, (3-{[4-(4-pyridinyl)-6-(1H-pyrrolo[2,3-b]pyridin-5-yl)-2-quinazolinyl]amino}phenyl)methanol] in this work.

Reference: US20090018131A1, “QUINAZOLINE DERIVATIVES AS P13 KINASE INHIBITORS” (priority 2007, published 2009)
